From US9238034B2, “FN14 antagonists and therapeutic uses thereof” (THE TRANSLATIONAL GENOMICS RESEARCH INSTITUTE, priority 2013, dated 2016)

Assays:
[1] = tested on: TWEAK-Fn14 signaling pathway; experiment: TWEAK induced Fn14-NF-κB Luc assay, optimized 384-well HTS format; format: cell-based, human; settings: 1000 cells/well, 40 ng/mL TWEAK 8 hr, 1 hr pre-incubation
Description: Human embryonic kidney cells (HEK293) express low levels of the Fn14 receptor. We developed a cell-based assay for the Fn14-TWEAK pathway signaling events using HEK293 cells that stably co-expresses high levels of full length Fn14 receptor and a firefly luciferase reporter driven by NF-KB-response elements (Fn14-NF-KB-Luc).
We optimized HEK293 Fn14-NF-KB Luc cell line for HTS by testing TWEAK-stimulated Luc-reporting as a function of growth medium, TWEAK concentration, induction time, assay duration, cell density, and DMSO concentration. For example, we seeded HEK293 Fn14-NF-KB-Luc and control cells (HEK293 NFKB-Luc) into a 96-well plate at a density of 10,000 cells/well, in DMEM or Opti-MEM® (Reduced serum media, protein concentration 15 μg/mL) and incubated at 37 C for 24 or 48 h. We then induced them with various concentrations of TWEAK in buffer or buffer alone (PBS+1 mg/mL BSA) for 5 hr and then measured firefly luciferase levels by chemiluminescence (Bright-Glo™ Promega). […] These initial conditions formed the basis for transfer of the assay into a 384-well format and further optimization with respect to cell seeding density, induction time, and TWEAK concentration.
We achieved the same conclusion from both 96-well and 384-well format that signal-to-background and fold-inductions are increased with increasing TWEAK concentration, peaking between 40-80 ng/mL and decreased at 100 ng/mL (FIGS. 20A and 20B). […] These conditions were further refined with respect to cell density (500-2500 cells per well), induction time (4-8 hr), and two TWEAK concentrations over a series of experiments in 384-well formats.
In the majority of seeding density conditions and two different TWEAK concentrations, the assay performance improved with increasing TWEAK induction time. At 8 hours of TWEAK stimulation, the fold induction (S/B) and Z′ factor was approximately 8-fold and 0.8, respectively, and the average % CV was 6.8%. […]

TNFα induction of NF-κB = experiment: TNFα induced counterscreen assay, HEK293 NF-κB Luc cells; format: cell-based, human
Description: TNFα induction of the HEK293 NF-κB cell line was used as a counterscreen. […] Furthermore, we tested the two control compounds, LY294002 and BAY11-7082, in a drug dose-response format. […] We anticipate that compounds that directly affect Fn14 oligomerization, TWEAK ligation, or signaling proteins specific to the TWEAK-Fn14 signaling pathway that drive NF-κB activation will show minimal activity in the TNFα counterscreen assay. In order to eliminate the false positive hits from the pilot screen, we further performed the counterscreen by testing 35 “positives” from the Prestwick collection against HEK293 NF-KB-Luc control cell lines induced by TNFα. From this experiment we eliminated 28 compounds that inhibited luciferase expression after TNFα induction of HEK293 NF-KB Luc cells. Thus, after counterscreen only 7 compounds appeared to be specific inhibitors to the TWEAK-Fn14 signaling pathway. […] Overall, through our pilot primary screen and counterscreen, our hit rate approached 0.6% for this targeted collection. We expect a random collection to yield a lower hit-rate, which will be further reduced through the chemoinformatic filtering for luciferase false positive artifacts. Furthermore, secondary assays will be critical as cytotoxic false positives appeared to be about 80% from our pilot screen. […]

SMILES	effect on TWEAK induced Fn14-NF-κB Luc signal [1]	drug inhibition of TNFα activation, Fn14 versus control cell lines (TNFα induction of NF-κB; drug dose-response format, 40 ng/ml TNFα)	effect in NF-KB Luc cells induced with TNFα (TNFα induction of NF-κB; 10 μM, TNFα 40 ng/mL for 8 hours)
Cc1ccc(S(=O)(=O)/C=C/C#N)cc1 [BAY11-7082]	dose-dependent manner	no significant difference	–
CC(C(=O)O)c1ccc(N2Cc3ccccc3C2=O)cc1 (stereo not shown) [Indoprofen]	drug sensitivity in a dose-dependent manner	–	no significant effect
